Assay results reported in US10196386B2, “Compounds having muscarinic receptor antagonist and beta2 adrenergic receptor agonist activity” (priority 2016, dated 2019).

How the values were obtained:
Human β2 adrenoceptor = biological target: T1, Human β2 adrenoceptor (Homo sapiens, UniProt P07550); assay: β2 adrenoceptor radioligand binding assay
T1 construct: purchased Perkin Elmer
Summary of the method: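 Human β2 receptor membranes incubated 1 h at room temperature with 0.3 nM [125I]cyanopindolol and compound in pH 7.4 HEPES buffer (0.5% DMSO); 2 μM s-propranolol defined non-specific binding. Bound label counted after filtration; IC50 from competition curves, converted to Ki via Cheng–Prusoff.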

Human M3 receptor = biological target: T2, Human M3 receptor (Homo sapiens, UniProt P20309); assay: biochemical; assay type: binding; conditions: read-out: M3 Range
T2 construct: purchased Perkin Elmer
T2 sequence (P20309 whole entry): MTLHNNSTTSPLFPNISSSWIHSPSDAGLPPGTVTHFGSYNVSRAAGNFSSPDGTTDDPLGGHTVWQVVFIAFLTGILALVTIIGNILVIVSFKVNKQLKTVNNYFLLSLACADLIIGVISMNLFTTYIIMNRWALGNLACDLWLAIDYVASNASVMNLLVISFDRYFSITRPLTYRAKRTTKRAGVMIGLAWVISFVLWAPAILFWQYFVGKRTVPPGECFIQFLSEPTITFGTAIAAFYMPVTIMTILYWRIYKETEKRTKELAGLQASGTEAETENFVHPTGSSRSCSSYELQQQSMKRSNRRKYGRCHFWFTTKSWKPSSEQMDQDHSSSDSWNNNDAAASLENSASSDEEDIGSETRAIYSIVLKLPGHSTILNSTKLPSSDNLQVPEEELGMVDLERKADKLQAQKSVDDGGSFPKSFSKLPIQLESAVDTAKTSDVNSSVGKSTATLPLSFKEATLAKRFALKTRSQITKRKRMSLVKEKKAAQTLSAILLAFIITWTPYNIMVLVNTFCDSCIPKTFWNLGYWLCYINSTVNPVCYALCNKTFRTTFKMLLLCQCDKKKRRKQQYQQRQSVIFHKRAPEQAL

T1 sequence (P07550 whole entry): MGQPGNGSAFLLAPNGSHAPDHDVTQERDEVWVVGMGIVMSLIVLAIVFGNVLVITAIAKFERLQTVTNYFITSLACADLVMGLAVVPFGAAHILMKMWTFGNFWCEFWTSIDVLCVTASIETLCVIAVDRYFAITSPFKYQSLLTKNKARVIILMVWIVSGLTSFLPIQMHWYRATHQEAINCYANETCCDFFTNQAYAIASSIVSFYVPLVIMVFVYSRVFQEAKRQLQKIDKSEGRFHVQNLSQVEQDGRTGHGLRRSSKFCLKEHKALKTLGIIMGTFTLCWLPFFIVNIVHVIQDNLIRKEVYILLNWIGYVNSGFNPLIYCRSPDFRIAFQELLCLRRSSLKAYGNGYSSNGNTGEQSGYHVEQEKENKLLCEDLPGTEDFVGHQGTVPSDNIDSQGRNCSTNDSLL

| SMILES | IC50 (Human β2 adrenoceptor) [pM] | IC50 (Human M3 receptor) [pM] |
| --- | --- | --- |
| O=C(c1ccc(CNC[C@H](O)c2ccc(O)c3[nH]c(=O)ccc23)cc1)N1CC=C(c2ccc([C@](O)(C(=O)OCC3CCN(Cc4ccccc4)CC3)c3ccccc3)cc2)CC1 [Compound 15E, (1-benzylpiperidin-4-yl)methyl (S)-2-hydroxy-2-(4-(1-(4-((((R)-2-hydroxy-2-(8-hydroxy-2-oxo-1,2-dihydroquinolin-5-yl)ethyl)amino)methyl)benzoyl)-1,2,3,6-tetrahydropyridin-4-yl)phenyl)-2-phenylacetate] | < 300 | 300 to 3000 |
| COc1cc(C(=O)NCc2cc(-c3ccc([C@](O)(C(=O)OCC4CCN(Cc5ccccc5)CC4)c4ccccc4)cc3)cs2)ccc1CNC[C@H](O)c1ccc(O)c2[nH]c(=O)ccc12 [Compound 15F, (1-benzylpiperidin-4-yl)methyl (S)-2-hydroxy-2-(4-(5-((4-((((R)-2-hydroxy-2-(8-hydroxy-2-oxo-1,2-dihydroquinolin-5-yl)ethyl)amino)methyl)-3-methoxybenzamido)methyl)thiophen-3-yl)phenyl)-2-phenylacetate] | < 300 | 300 to 3000 |
| O=C(NCc1ccc(CCNC[C@H](O)c2ccc(O)c3[nH]c(=O)ccc23)cc1)c1ccc(-c2ccc([C@](O)(C(=O)OCC3CCN(Cc4ccccc4)CC3)c3ccccc3)cc2)s1 [Compound 16, (1-benzylpiperidin-4-yl)methyl (S)-2-hydroxy-2-(4-(5-((4-(2-(((R)-2-hydroxy-2-(8-hydroxy-2-oxo-1,2-dihydroquinolin-5-yl)ethyl)amino)ethyl)benzyl)-carbamoyl)thiophen-2-yl)phenyl)-2-phenylacetate×2 HCOOH] | 300 to 3000 | > 3000 |
